# Patent US20120046461A1, “STEROIDAL ANTI-HORMONE HYBRIDS” (Northeastern University, priority 2009, published 2012)
# Where “and” joins values, the source holds several entries; their conditions need not be identical. Equal entries are not always repeated.
# Experiments:
# [1] = biological target: T1, LBD of human ERα (M250-V595) (Homo sapiens, UniProt P03372); experiment: Competitive binding of [3H]E2 to ERα-LBD (RBA); settings: RBA against E2
# T1 construct: the LBD of human ERα (M250-V595) is expressed; made in house; host or cells: Escherichia coli (lysates)
# T1 sequence (P03372 250-595): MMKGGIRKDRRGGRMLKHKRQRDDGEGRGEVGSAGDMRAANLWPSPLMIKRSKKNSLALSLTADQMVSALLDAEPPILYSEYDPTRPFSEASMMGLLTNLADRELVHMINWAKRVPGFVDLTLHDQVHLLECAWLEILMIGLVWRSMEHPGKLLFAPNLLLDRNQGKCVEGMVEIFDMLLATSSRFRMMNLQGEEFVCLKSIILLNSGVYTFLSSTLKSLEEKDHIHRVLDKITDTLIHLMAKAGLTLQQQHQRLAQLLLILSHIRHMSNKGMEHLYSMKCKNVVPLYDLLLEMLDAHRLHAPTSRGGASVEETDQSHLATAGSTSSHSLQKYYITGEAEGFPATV
# Protocol: (§1) A. Competitive Binding to Rat Cytosolic ER, Human LBD-ERα and Human LBD-ERβ
# Biological evaluation used competitive binding assays with estradiol on the ERα-LBD. […] After incubation, the media was aspirated, the plates were washed 3 times, and the receptor-bound radioactivity absorbed to the plates was extracted with methanol and counted.
# (§2) The ability of the described ERα ligands to bind to the ER was determined through their RBA against E2, in the competitive binding assay described above.
# [2] = biological target: T2, Human LBD-ERβ (Homo sapiens, UniProt Q92731); experiment: Competitive binding to ERβ (RBA); settings: for RBA ERβ: RBA against E2
# T2 construct: Human LBD-ERα and Human LBD-ERβ
# T2 sequence (Q92731 264-498 limits assumed): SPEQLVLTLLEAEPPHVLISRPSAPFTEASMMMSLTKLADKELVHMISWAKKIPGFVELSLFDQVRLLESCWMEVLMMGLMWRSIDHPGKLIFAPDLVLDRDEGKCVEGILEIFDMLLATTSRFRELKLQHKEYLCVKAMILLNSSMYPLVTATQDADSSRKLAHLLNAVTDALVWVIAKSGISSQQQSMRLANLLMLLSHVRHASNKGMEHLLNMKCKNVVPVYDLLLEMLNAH
# Protocol: as §1
# Biological evaluation used competitive binding assays with estradiol on the ERα-LBD. Binding affinities of the estradiol derivatives relative to E, were performed in incubations with the LBD of ERα. in lysates of Escherichia coli in which the LBD of human ERα (M250-V595) is expressed as described in Antonello, et al. (J. Med. Chem. (2006) 49:6642-6645), Morphy, et al. (J. Med. Chem. (2006), 49:4961-4970); Meunier (Accounts Chem. Res. (2007), and Ojima (Accounts Chem. Res. (2007). The assay was perfoiiued overnight in phosphate buffered saline +1 mM EDTA at RT. The competition for binding of [^3H]E2 to the LBD of the E2-derivatives in comparison to E2, relative binding affinity (RBA) was determined over a range of concentrations from 10^−12 to 10^−6M. After incubation, the media was aspirated, the plates were washed 3 times, and the receptor-bound radioactivity absorbed to the plates was extracted with methanol and counted.
# as §2
# [3] = test system: alkaline phosphatase in Ishikawa cells; experiment: Stimulation of alkaline phosphatase in Ishikawa cells (estrogenic potency); format: cell-based, human; settings: for Ishikawa - RSA: relative stimulatory activity in comparison to E2 = 100%
# Protocol: The methodology for determining estrogenic potency, estrogen receptor binding, and stimulation of an estrogen responsive gene in alkaline phosphatase in the Ishikawa cell was performed as described. (Stabile, et al. (2005) Cancer Res. 65:1459-1470; Perez-Soler (2007) Clin. Can. Res. 13(Suppl. 15):[…]; Nicholson, et al. (2000) British J. Cancer 82:501-513; Schiff, et al. (2004) Clin. Can. Res. 10 (supp.1):331s-336s).
# (§3) The induction of AlkP in human endometrial adenocarcinoma cells (Ishikawa) grown in 96-well microtiter plates was performed as described. The cells were grown in Phenol red-free medium with estrogen-depleted (charcoal stripped) bovine serum in the presence or absence of varying amounts of the steroids across a dose range of at least 6 orders of magnitude. After 3 days, the cells were washed, frozen, thawed, and then incubated with 5 mM p-nitrophenyl phosphate, a chromogenic substrate for the AlkP enzyme, at pH 9.8. To ensure linear enzymatic analysis, the plates were monitored kinetically for the production of p-nitrophenol at 405 nm.
# (§4) Each compound was analyzed in at least 3 separate experiments performed in duplicate. The Ki and RSA (RSA=ratio of 1/EC50 of the steroid analog to that of E2×100) were determined using the curve fitting program Prism. The results are shown below in FIGS. 1A-1C, 2, 3, and 4.
# [4] = test system: MCF-7 (ER-positive) breast cancer cell line; experiment: Cellular proliferation of MCF-7 (ER-positive) breast cancer cells, mitomycin series; format: cell-based; settings: MCF-7 cells, FIG. 2, 4, 5
# Text: Another series of biological assays (Litzenburger, et al., Clin. Can. Res. (2009) 15:226 and Georghis, et al., Can. Chemothera. Pharmacol. (1992) 29:290.) are run to evaluate the effect of the mitomycin moiety on cellular proliferation of MCF-7 (ER-positive) and MDA-231 (ER-negative) breast cancer cell lines.
# [5] = test system: MCF-7 cells; experiment: Anti-proliferative assay (MTS/PMS), MCF-7; format: cell-based; settings: 72 h
# Protocol: (§5) MCF-7 and SKBr3 cells were maintained in a 1:1 mixture of Advanced DMEM/F12 (Gibco) supplemented with nonessential amino acids, L-glutamine (2 mM), streptomycin ([…]), penicillin (100 units/mL), and 10% FBS. Cells were grown to confluence in a humidified atmosphere (37° C., 5% CO2), seeded (2000/well, 100 μL) in 96-well plates, and allowed to attach overnight. Compound or GDA at varying concentrations in DMSO (1% DMSO final concentration) was added, and cells were returned to the incubator for 72 h. At 72 h, the number of viable cells was determined using an MTS/PMS cell proliferation kit (Promega) per the manufacturer's instructions. Cells incubated in 1% DMSO were used as 100% proliferation, and values were adjusted accordingly. IC50 values were calculated from separate experiments performed in triplicate using GraphPad Prism.
# [6] = test system: SKBr3 cells; experiment: Anti-proliferative assay (MTS/PMS), SKBr3; format: cell-based; settings: 72 h
# Protocol: as §5
# [7] = test system: alkaline phosphatase in Ishikawa cells; experiment: Inhibition of E2-stimulated alkaline phosphatase in Ishikawa cells; format: cell-based, human; settings: Ki determined in the presence of I nm E2
# Protocol: as §3, §4
compound,measurement,setting,value
"C[C@]12C[C@H](c3ccc(OCCN=[N+]=[N-])cc3)[C@@H]3c4ccc(O)cc4CC[C@H]3[C@@H]1CC[C@@H]2O [Compound 2-13, (8S,9R,11S,13S,14S,17S)-11-(4-(2-azidoethoxy)phenyl)-7,8,9,11,12,13,14,15,16,17-decahydro-13-methyl-6H-cyclopenta[a]phenanthrene-3,17-diol]",RBA ERα,[1],39.3±9.0 and 39.3
same,RBA ERα,[1]; listed as drawing 40,39.3 ± 9.0
same,ER-subtype selectivity,[2]; ERα vs ERβ,does not differentiate between ERα and ERβ
same,RBA ERβ,[2],33.7±1.77
same,RBA ERβ,[2]; listed as drawing 40,33.7 ± 1.77
same,β/α,[2]; ratio of RBA ERβ to RBA ERα,0.86
"C[C@]12C[C@H](c3ccc(OCCOCCOCCN=[N+]=[N-])cc3)[C@@H]3c4ccc(O)cc4CC[C@H]3[C@@H]1CC[C@@H]2O [EH-N7-092, 11β-[4-(ω-azido-triethyleneglycoloxy)]-phenyl-estradiol]",Ishikawa - RSA,[3],0%
CO[C@@]12[C@H](COC(N)=O)C3=C(C(=O)C(C)=C(N)C3=O)N1C[C@@H]1N[C@@H]12 [mitomycin C],anti-proliferative response,[4],more potent in the MCF-7 vs. the MDA-231 cell lines
"Estradiol [Compound E2, reference compound]",EC50,"[3]; Ishikawa cells, read-out: EC50 of E2, alkaline phosphatase induction",~0.2 nM
Geldanamycin aminopentanamidocarbonylphenyl-methyl difluorocyclooctenyltriazolo-ethoxy Anti-Estrogen [Compound 3-17],EC50,[5],17000 nM
Geldanamycin-aminoheptaethylene glycolyl-triazolo-methylaminoethoxy Anti-Estrogen [Compound 3-15],EC50,[5],102 ± 5 nM
Geldanamycin-aminomethyl-triazolo-ethoxy Anti-Estrogen [Compound 3-13],EC50,[6],710 ± 160 nM
same,EC50,[5],1200 ± 90 nM
N-propargyl-N′-methyl-mitomycin C [EH-N9-006],Ishikawa - RSA,[3],0%
same,Ki,[7],40 ± 4 nM
